From ChEMBL document CHEMBL5537186 (J Med Chem, 2024)
Converted amounts (≈) assume the structure as drawn.

Assays:
[1] = Lipophilicity, logD of compound at pH 7.4; type: physicochemical; details: buffer
[2] = Kinetic aqueous solubility of compound at pH 7.4; type: physicochemical; details: read-out: Kinetic_solubility
[3] = Metabolic stability in human hepatocytes assessed as compound remaining measured after 60 mins; type: ADME, cell-based, Hepatocyte; details: read-out: Stability
[4] = Kinetic aqueous solubility of compound at pH 4.5; type: physicochemical; details: read-out: Kinetic_solubility

| Structure (SMILES) | logD [1] | solubility kinetic [2] [µM] | remaining at 1 h [3] [%] | solubility kinetic [4] [µM] |
| --- | --- | --- | --- | --- |
| Cc1ccc(NC(=O)N2CCO[C@H](C(F)(F)F)C2)cc1-c1cc(OCCO)nc(N2CCOCC2)c1 | 3.46 | 62 (≈ 31.7 µg/mL) | 93 | – |
| Cc1ccc(NC(=O)N2CC[C@@H](CC(F)(F)F)C2)cc1-c1cc(OC[C@@H](C)O)nc(N2CCOCC2)c1 | 3.94 | 23 (≈ 12 µg/mL) | 23 | 26 (≈ 13.6 µg/mL) |
| Cc1ccc(NC(=O)N2CC[C@H](C(F)(F)F)C2)cc1-c1cc(OCCO)nc(N2CCOCC2)c1 | 3.51 | 83 (≈ 41 µg/mL) | 6 | – |
| Cc1ccc(NC(=O)N2CC[C@@H](C(F)(F)F)C2)cc1-c1cc(OCCO)nc(N2CCOCC2)c1 | 3.49 | 83 (≈ 41 µg/mL) | 7 | – |
| Cc1ccc(NC(=O)N2CC[C@@H](CC(F)(F)F)C2)cc1-c1cc(O[C@@H](C)CO)nc(N2CCOCC2)c1 | 3.84 | 56 (≈ 29.3 µg/mL) | 45 | – |
